{
  "source": "patent US20100137433A1",
  "about": "“Production of Rosmarinic Acid from Spearmint and uses Thereof” (priority 2007, published 2010)",
  "key": {"[1]": {"tested_on": "mild allergic asthmatic subjects", "assay": "Sputum analysis (allergen-induced airway inflammation, sputum eosinophils)", "assay_type": "in vivo, human", "details": "vs placebo, two subjects, FIGS. 4A-4B", "experimental": "(§1) Subjects. Two subjects (person) were recruited for the study. Inclusion criteria required subjects to be non-smokers with stable, mild atopic asthma, free of other lung disease. Subjects were required to have FEV1 (forced expiratory volume in 1 second)>70% of predicted, baseline methacholine PC20 (the provocative concentration of methacholine causing a 20% fall in FEV1)<16 mg/mL, and development of an allergen-induced EAR (at least 20% fall in FEV1 within 2 h post allergen inhalation) and LAR (at least 15% fall FEV1 between 3-7 h post allergen inhalation).\n(§2) Study design. Subjects meeting the inclusion criteria underwent allergen challenge with placebo and rosmarinic acid, in this order, separated by a washout period of at least 4 weeks. Placebo was inhaled PBS on 2 consecutive mornings before challenge. Rosmarinic acid treatment consisted of 7 days of 2 cups of tea per day. Day 6 consisted of pre-dose measurements of airway hyperresponsiveness and sputum cells. On Day 7 allergen inhalation challenge was performed. Measurements of FEV1 were taken at regular intervals until 7 h after challenge and sputum cells were then collected. […]\nSputum was induced and processed using the method described by Pizzichini et al. (1996). Differential cell counts were obtained and an aliquot of cells were lysed for quantitative PCR measurements."}, "[2]": {"tested_on": "mice exposed to diesel dust particulates", "details": "2 mg/day for 3 days prior to exposure; cited from earlier work"}, "[3]": {"tested_on": "seasonal allergic rhinitis", "details": "active treatment; cited from earlier work"}, "[4]": {"details": "cited from earlier work"}, "Aβ25-35-injected mice": {"tested_on": "Aβ25-35-injected mice", "details": "Aβ25-35 injection; cited from earlier work"}, "[5]": {"tested_on": "mild allergic asthmatic subjects", "assay": "Methacholine inhalation test (methacholine PC20, airway hyper-responsiveness)", "assay_type": "in vivo, human", "details": "tea 2 cups per day for 7 days", "experimental": "as §1, with “(45 and 57 year old, male)” for “(person)”\nas §2\nMethacholine inhalation challenge was performed as described by Cockcroft (1985). The test was terminated when a fall in FEV1 of 20% of the baseline value occurred, and the methacholine PC20 is calculated."}, "[6]": {"tested_on": "mild allergic asthmatic subjects", "assay": "Allergen inhalation challenge (allergen-induced bronchoconstriction, EAR and LAR)", "assay_type": "in vivo, human", "experimental": "as §1, §2\nAllergen challenge was performed as described by O'Byrne (1987), and the concentration of allergen extract (Omega Laboratories, Montreal, QC) for inhalation was determined from a formula described by Cockcroft et al. (1987). […]"}, "[7]": {"assay": "Stability of rosmarinic acid in dried and stored spearmint 700B tissues", "assay_type": "physicochemical", "details": "heated to 80° C. for an additional 24 hours after drying to 11.7% moisture", "experimental": "The level of rosmarinic acid in dried and stored samples of spearmint line 700B tissues was followed over time to determine its stability. Spearmint plant tissue was harvested, dried, and stored, and levels of rosmarinic acid were determined essentially as described by Fletcher et al., (2005a). Plant material was harvested manually from the field and placed in large net bags. The bagged mint […] spread evenly over a grate and dried in a drying oven at a temperature of 35° C. for 96 hours. The stems and other debris were separated from the leaves, and the leaves were crushed to a size suitable for tea. The crushed leaf material was transferred to zip-lock bags and stored at room temperature in the absence of light. Additionally, to study the effect of drying temperature on stability of RA, a sample of spearmint plant material was dried to 11.7% moisture as above for determination of RA content. After 96 hours, a sample of the material was placed into a drying oven and heated to 80° C. for an additional 24 hours, and RA levels were also determined."}},
  "data": [
    {"molecule": "O=C(/C=C/c1ccc(O)c(O)c1)O[C@H](Cc1ccc(O)c(O)c1)C(=O)O", "note": "[RA, α-O-caffeoyl-3,4-dihydroxyphenyl-lactic acid]", "values": [
      {"measurement": "% sputum eosinophils post allergen", "setting": "[1]", "value": "consistently lower"},
      {"measurement": "Protein and DNA damage in lung tissue (postmortem histological staining) compared to controls", "setting": "[2]", "value": "marked decrease"},
      {"measurement": "Numbers of neutrophils and eosinophils in nasal lavage fluid", "setting": "[3]", "value": "significantly decreased"},
      {"measurement": "Recovery of intact rosmarinic acid and metabolites in urine", "setting": "[4]; rat urine", "value": "0.077 % of the amount ingested"},
      {"measurement": "Time to full concentration in the blood plasma", "setting": "[4]; rats, absorbed via the small intestine", "value": "≤ 30", "unit": "min"},
      {"measurement": "Effective lowest dose preventing Aβ25-35-induced nitration of proteins in the hippocampus", "setting": "Aβ25-35-injected mice", "value": 0.25, "unit": "mg/kg"},
      {"measurement": "Methacholine PC20", "setting": "[5]; subject 19, 24 h post allergen challenge (cat)", "value": 0.38, "unit": "mg/mL"},
      {"measurement": "Methacholine PC20", "setting": "[5]; subject 20, 24 h post allergen challenge (HDMDP)", "value": 1.27, "unit": "mg/mL"},
      {"measurement": "Allergen-induced EAR", "setting": "[6]; subject #20, vs placebo, allergen 1:128 dilution with RA, 1:64 with diluent", "value": "lower"},
      {"measurement": "Effect on the allergen-induced EAR or LAR", "setting": "[6]; two subjects, limited sample size", "value": "does not appear to have any effect"},
      {"measurement": "Amount of RA in the tissues before and after the 80° C. drying step", "setting": "[7]", "value": "remained the same"}
    ]}
  ]
}
